From publication PMC8213057, “Targeting ALK2: An Open Science Approach to Developing Therapeutics for the Treatment of Diffuse Intrinsic Pontine Glioma” (Journal of Medicinal Chemistry, 2020)

Columns and labels:
[1] = target: T1, BRAF (Homo sapiens, UniProt P15056); test: 375-member kinase panel; assay type: biochemical; details: Run 1, Run 2; for % enzyme activity: 1 μM; for remaining activity at 1 µM: read-out: % enzyme activity, 1 μM
T1 construct: purchased Reaction Biology Corporation

[2] = target: T2, CDK9/cyclin K (Homo sapiens, UniProt P50750); test: 375-member kinase panel; assay type: biochemical; details: Run 1, Run 2; for % enzyme activity: 1 μM; for remaining activity at 1 µM: read-out: % enzyme activity, 1 μM
T2 construct: purchased Reaction Biology Corporation
T2 sequence (P50750 whole entry): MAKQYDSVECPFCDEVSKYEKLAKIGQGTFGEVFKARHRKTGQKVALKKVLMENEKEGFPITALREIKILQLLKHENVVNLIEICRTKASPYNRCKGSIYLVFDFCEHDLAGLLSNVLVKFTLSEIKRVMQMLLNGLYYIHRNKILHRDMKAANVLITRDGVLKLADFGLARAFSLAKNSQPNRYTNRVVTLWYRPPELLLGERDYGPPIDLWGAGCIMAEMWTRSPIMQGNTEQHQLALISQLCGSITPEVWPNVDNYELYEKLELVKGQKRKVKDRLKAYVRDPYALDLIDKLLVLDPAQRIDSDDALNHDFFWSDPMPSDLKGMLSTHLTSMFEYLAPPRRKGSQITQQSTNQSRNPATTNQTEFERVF
T2 sequence (O75909 whole entry partner): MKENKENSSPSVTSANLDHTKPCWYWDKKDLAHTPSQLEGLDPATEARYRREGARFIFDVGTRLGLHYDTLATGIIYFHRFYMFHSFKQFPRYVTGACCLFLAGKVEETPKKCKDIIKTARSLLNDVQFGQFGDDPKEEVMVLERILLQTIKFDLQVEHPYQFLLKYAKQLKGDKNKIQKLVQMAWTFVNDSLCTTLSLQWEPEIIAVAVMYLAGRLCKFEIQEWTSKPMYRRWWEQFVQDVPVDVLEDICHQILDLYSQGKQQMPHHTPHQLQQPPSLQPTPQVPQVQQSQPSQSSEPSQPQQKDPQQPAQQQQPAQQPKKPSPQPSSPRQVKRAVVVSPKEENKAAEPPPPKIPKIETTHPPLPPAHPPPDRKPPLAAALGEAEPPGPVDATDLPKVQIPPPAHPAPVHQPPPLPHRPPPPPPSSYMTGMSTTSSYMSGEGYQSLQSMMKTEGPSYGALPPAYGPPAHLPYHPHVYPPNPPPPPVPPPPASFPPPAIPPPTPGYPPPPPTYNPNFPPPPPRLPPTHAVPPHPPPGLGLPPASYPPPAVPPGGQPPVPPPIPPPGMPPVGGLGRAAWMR

[3] = target: T3, DDR2 (Homo sapiens, UniProt Q16832); details: 1 μM; Run 1, Run 2
T3 sequence (Q16832 22-855): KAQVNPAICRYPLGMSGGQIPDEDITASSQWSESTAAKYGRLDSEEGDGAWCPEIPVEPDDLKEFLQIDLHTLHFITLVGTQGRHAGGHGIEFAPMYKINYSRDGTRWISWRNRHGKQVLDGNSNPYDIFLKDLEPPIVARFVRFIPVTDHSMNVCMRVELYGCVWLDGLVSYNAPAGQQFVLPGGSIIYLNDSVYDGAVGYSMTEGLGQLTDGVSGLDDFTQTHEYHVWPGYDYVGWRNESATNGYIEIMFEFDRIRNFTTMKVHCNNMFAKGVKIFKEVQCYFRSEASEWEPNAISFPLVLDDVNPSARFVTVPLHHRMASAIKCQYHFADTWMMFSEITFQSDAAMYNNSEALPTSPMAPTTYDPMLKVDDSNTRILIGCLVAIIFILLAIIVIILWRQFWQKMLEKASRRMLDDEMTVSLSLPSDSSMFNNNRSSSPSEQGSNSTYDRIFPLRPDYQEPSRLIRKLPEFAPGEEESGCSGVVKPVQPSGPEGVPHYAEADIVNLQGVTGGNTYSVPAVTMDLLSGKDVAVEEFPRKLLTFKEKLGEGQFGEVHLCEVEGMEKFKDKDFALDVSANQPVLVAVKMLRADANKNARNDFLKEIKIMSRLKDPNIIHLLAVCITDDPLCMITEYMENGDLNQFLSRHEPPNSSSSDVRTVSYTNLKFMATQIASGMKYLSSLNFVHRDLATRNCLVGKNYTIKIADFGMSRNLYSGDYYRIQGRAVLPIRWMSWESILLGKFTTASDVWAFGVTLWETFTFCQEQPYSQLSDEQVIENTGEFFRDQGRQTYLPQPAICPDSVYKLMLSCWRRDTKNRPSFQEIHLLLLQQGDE

[4] = target: T4, KSR2 (Homo sapiens, UniProt Q6VAB6); details: 1 μM; Run 1, Run 2
T4 sequence (Q6VAB6 1-950): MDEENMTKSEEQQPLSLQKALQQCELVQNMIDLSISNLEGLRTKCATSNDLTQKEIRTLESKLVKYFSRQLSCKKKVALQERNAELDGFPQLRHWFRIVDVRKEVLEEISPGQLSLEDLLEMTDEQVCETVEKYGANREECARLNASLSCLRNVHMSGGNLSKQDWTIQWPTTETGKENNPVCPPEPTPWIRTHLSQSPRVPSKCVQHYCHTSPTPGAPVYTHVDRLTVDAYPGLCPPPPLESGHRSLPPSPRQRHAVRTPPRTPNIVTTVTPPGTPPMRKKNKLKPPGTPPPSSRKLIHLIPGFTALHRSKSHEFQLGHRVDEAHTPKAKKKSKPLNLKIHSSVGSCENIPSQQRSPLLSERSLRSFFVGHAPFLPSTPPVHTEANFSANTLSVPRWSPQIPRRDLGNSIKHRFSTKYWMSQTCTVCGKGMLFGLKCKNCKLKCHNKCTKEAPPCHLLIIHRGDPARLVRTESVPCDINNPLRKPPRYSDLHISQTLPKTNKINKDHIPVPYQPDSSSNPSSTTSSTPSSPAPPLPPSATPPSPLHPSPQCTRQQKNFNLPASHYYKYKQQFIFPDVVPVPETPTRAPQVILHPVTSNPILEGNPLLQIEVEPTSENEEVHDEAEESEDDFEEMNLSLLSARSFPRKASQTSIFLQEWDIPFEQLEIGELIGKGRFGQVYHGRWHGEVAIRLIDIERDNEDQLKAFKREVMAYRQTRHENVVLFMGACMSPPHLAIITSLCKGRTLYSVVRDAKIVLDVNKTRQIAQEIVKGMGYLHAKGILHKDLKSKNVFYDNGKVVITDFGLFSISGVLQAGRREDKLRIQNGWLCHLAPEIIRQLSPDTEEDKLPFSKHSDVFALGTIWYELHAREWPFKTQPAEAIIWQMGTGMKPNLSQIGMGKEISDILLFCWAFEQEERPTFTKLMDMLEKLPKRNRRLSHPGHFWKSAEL

[5] = target: T5, NEK5 (Homo sapiens, UniProt Q6P3R8); details: 1 μM; Run 1, Run 2
T5 sequence (Q6P3R8 1-708): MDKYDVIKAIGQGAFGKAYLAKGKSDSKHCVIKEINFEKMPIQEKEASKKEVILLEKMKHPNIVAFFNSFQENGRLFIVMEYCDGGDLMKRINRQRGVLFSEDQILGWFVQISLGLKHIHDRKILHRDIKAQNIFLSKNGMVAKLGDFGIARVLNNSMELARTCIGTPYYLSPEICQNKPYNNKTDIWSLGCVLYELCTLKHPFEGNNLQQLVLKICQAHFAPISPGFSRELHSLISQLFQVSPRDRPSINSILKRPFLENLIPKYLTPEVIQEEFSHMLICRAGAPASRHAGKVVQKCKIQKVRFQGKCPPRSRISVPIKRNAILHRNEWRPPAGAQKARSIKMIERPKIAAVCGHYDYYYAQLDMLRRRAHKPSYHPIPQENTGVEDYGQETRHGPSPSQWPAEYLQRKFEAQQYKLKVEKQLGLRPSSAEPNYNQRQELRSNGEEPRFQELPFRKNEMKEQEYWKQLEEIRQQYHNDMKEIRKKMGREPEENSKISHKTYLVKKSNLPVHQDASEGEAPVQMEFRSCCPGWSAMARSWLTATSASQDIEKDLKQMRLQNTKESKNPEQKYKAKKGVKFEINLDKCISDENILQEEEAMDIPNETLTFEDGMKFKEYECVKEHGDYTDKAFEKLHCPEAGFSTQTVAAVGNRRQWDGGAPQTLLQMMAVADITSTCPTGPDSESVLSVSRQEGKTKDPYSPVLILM

[6] = target: T6, TSSK3/STK22C (Homo sapiens, UniProt Q96PN8); details: 1 μM; Run 1, Run 2
T6 sequence (Q96PN8 1-268): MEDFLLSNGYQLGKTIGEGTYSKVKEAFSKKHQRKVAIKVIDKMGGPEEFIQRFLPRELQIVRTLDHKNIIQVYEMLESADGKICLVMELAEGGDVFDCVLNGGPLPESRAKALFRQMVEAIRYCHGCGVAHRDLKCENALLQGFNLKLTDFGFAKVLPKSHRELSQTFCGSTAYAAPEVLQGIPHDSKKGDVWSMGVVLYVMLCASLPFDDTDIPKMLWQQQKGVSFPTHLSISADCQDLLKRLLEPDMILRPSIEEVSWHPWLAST

[7] = target: CLK3 (Homo sapiens, UniProt P49761); test: biochemical; details: read-out: % enzyme activity, 1 μM; Run 1, Run 2
Sequence of CLK3 (P49761 whole entry): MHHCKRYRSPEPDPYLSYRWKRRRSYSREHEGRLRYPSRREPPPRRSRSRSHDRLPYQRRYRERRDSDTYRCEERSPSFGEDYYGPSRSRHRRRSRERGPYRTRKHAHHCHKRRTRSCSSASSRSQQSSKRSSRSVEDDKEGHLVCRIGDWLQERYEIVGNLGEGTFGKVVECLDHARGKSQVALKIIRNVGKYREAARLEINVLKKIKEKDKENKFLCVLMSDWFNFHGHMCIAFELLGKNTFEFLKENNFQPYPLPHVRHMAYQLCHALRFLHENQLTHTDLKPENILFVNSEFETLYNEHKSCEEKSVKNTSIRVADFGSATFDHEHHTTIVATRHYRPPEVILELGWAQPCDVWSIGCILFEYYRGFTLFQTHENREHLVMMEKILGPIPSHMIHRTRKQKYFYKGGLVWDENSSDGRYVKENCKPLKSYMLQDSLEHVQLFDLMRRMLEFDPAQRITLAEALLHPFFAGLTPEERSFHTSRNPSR

T1 sequence (P15056 whole entry): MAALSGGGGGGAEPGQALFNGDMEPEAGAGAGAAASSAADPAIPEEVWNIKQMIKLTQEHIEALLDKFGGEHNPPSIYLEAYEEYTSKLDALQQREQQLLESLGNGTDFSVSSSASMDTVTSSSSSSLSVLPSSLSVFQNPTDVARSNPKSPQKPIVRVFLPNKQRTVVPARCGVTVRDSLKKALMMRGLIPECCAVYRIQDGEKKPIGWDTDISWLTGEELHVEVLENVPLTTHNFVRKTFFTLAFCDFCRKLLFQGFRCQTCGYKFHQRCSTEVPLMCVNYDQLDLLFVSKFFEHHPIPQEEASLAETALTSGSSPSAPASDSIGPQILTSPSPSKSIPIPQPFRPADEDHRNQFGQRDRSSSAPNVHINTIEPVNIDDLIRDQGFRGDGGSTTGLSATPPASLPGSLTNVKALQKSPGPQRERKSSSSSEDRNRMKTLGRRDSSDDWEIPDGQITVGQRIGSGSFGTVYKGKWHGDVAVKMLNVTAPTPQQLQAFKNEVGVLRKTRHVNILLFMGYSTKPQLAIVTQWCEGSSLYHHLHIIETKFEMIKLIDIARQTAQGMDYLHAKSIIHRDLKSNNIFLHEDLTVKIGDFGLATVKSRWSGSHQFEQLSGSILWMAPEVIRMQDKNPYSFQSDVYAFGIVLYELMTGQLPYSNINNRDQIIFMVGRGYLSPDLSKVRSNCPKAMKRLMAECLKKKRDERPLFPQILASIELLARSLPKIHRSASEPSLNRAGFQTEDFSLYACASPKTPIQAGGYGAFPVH

SMILES	% enzyme activity [1] [%]	remaining activity at 1 µM [1] [%]	% enzyme activity [2] [%]	remaining activity at 1 µM [2] [%]	% enzyme activity [3] [%]	% enzyme activity [4] [%]	% enzyme activity [5] [%]	% enzyme activity [6] [%]	remaining activity at 1 µM [7] [%]
COc1cc(-c2cncc(-c3ccc(N4CCN(C)CC4)cc3)c2C)cc(F)c1C(N)=O [Compound 26a, 2-Fluoro-6-methoxy-4-(4-methyl-5-(4-(4-methylpiperazin-1-yl)phenyl)pyridin-3-yl)benzamide]	28.77	28.8	96.95	97.5	96.68	93.25	97.51	96.02	103
COc1cc(-c2cncc(-c3ccc(N4C[C@@H](C)N(C)[C@@H](C)C4)cc3)c2C)cc(F)c1C(N)=O [Compound 26c, 2-Fluoro-6-methoxy-4-(4-methyl-5-(4-((3R,5S)-3,4,5-trimethylpiperazin-1-yl)phenyl)pyridin-3-yl)benzamide]	40.52	41.1	102.30	106	92.27	97.71	93.10	95.64	88.3
